Laboratory results as given in ChEMBL document CHEMBL1201862, “PubChem BioAssay data set” (2004).
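Where inhibition never reached the appropriate level, the endpoint shown equals the highest concentration tested. Otherwise, values were interpolated linearly from a five-concentration, 48-hour dose response in 96-well plates. At the GI50, growth is halved.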 Activity calls are given as the source filed them. Cut-off read from the data, not from the text of the source: active = GI50 up to about 1.1 µM and inactive = higher.

Tests used:
Assay in all cases: NCI-60 cell line screen, 48 h
A498 = tested on: A498
SK-MEL-28 = tested on: SK-MEL-28
UO-31 = tested on: UO-31
HOP-92 = tested on: HOP-92
UACC-257 = tested on: UACC-257
SK-MEL-5 = tested on: SK-MEL-5
NCI-H522 = tested on: NCI-H522
SNB-75 = tested on: SNB-75
Hs-578T = tested on: Hs-578T
HT-29 = tested on: HT-29
MDA-N = tested on: MDA-N
SW-620 = tested on: SW-620
BT-549 = tested on: BT-549
MOLT-4 = tested on: MOLT-4
NCI-H226 = tested on: NCI-H226
SNB-19 = tested on: SNB-19
CCRF-CEM = tested on: CCRF-CEM
ACHN = tested on: ACHN
IGROV-1 = tested on: IGROV-1
T47D = tested on: T47D
COLO 205 = tested on: COLO 205
DU-145 = tested on: DU-145
SN12C = tested on: SN12C
MDA-MB-231 = tested on: MDA-MB-231
PC-3 = tested on: PC-3
KM12 = tested on: KM12
HCT-15 = tested on: HCT-15
MDA-MB-435 = tested on: MDA-MB-435
OVCAR-5 = tested on: OVCAR-5
HCT-116 = tested on: HCT-116
U-251 = tested on: U-251
HOP-62 = tested on: HOP-62
OVCAR-4 = tested on: OVCAR-4
Malme-3M = tested on: Malme-3M
SK-OV-3 = tested on: SK-OV-3
NCI/ADR-RES = tested on: NCI/ADR-RES
EKVX = tested on: EKVX
SF-268 = tested on: SF-268
M14 = tested on: M14
OVCAR-8 = tested on: OVCAR-8
CAKI-1 = tested on: CAKI-1
K562 = tested on: K562
SF-295 = tested on: SF-295
OVCAR-3 = tested on: OVCAR-3
A549 = tested on: A549
RXF 393 = tested on: RXF 393
NCI-H23 = tested on: NCI-H23
SR = tested on: SR
MCF7 = tested on: MCF7
TK-10 = tested on: TK-10
SF-539 = tested on: SF-539
HCC 2998 = tested on: HCC 2998
UACC-62 = tested on: UACC-62
SK-MEL-2 = tested on: SK-MEL-2
HL-60 = tested on: HL-60
786-0 = tested on: 786-0
RPMI-8226 = tested on: RPMI-8226
LOX IMVI = tested on: LOX IMVI
NCI-H460 = tested on: NCI-H460

CCn1c(=O)c2c3ccc(O)cc3[nH]c2c2ccc(O)cc21
GI50 (A498): > 100 µM (inactive) | GI50 (SK-MEL-28): > 100 µM (inactive) | GI50 (UO-31): > 100 µM (inactive) | GI50 (HOP-92): > 100 µM (inactive) | GI50 (UACC-257): > 100 µM (inactive) | GI50 (SK-MEL-5): 30.9 µM (inactive) | GI50 (NCI-H522): 93.3 µM (inactive) | GI50 (SNB-75): 66.2 µM (inactive) | GI50 (Hs-578T): 44.1 µM (inactive) | GI50 (HT-29): > 100 µM (inactive) | GI50 (MDA-N): 66.4 µM (inactive) | GI50 (SW-620): > 100 µM (inactive) | GI50 (BT-549): > 100 µM (inactive) | GI50 (MOLT-4): 39.1 µM (inactive) | GI50 (NCI-H226): > 100 µM (inactive) | GI50 (SNB-19): > 100 µM (inactive) | GI50 (CCRF-CEM): 55.8 µM (inactive) | GI50 (ACHN): 96.4 µM (inactive) | GI50 (IGROV-1): > 100 µM (inactive) | GI50 (T47D): 51.2 µM (inactive) | GI50 (COLO 205): > 100 µM (inactive) | GI50 (DU-145): > 100 µM (inactive) | GI50 (SN12C): 81.5 µM (inactive) | GI50 (MDA-MB-231): 64.4 µM (inactive) | GI50 (PC-3): > 100 µM (inactive) | GI50 (KM12): > 100 µM (inactive) | GI50 (HCT-15): > 100 µM | GI50 (MDA-MB-435): 61 µM (inactive) | GI50 (OVCAR-5): > 100 µM (inactive) | GI50 (HCT-116): 45.4 µM (inactive) | GI50 (U-251): 56.8 µM (inactive) | GI50 (HOP-62): > 100 µM (inactive) | GI50 (OVCAR-4): > 100 µM (inactive) | GI50 (Malme-3M): 95.9 µM (inactive) | GI50 (SK-OV-3): > 100 µM (inactive) | GI50 (NCI/ADR-RES): > 100 µM (inactive) | GI50 (EKVX): > 100 µM (inactive) | GI50 (SF-268): > 100 µM (inactive) | GI50 (M14): > 100 µM (inactive) | GI50 (OVCAR-8): > 100 µM (inactive) | GI50 (CAKI-1): > 100 µM (inactive) | GI50 (K562): 83.6 µM (inactive) | GI50 (SF-295): > 100 µM (inactive) | GI50 (OVCAR-3): > 100 µM (inactive) | GI50 (A549): > 100 µM (inactive) | GI50 (RXF 393): > 100 µM (inactive) | GI50 (NCI-H23): > 100 µM (inactive) | GI50 (SR): 55.6 µM (inactive) | GI50 (MCF7): 50.7 µM (inactive) | GI50 (TK-10): > 100 µM (inactive) | GI50 (SF-539): > 100 µM (inactive) | GI50 (HCC 2998): > 100 µM (inactive) | GI50 (UACC-62): 57 µM (inactive)

O=C(O)CCCC(=O)Nn1c(Cc2ccc(Cl)cc2)n[nH]c1=O
GI50 (A498): 71.6 µM (inactive) | GI50 (SK-MEL-2): > 100 µM (inactive) | GI50 (SK-MEL-28): > 100 µM (inactive) | GI50 (UO-31): 14.9 µM (inactive) | GI50 (HOP-92): > 100 µM (inactive) | GI50 (UACC-257): > 100 µM (inactive) | GI50 (SK-MEL-5): > 100 µM (inactive) | GI50 (NCI-H522): 71.8 µM (inactive) | GI50 (SNB-75): > 10 µM (inactive) | GI50 (Hs-578T): > 100 µM (inactive) | GI50 (HT-29): > 100 µM (inactive) | GI50 (MDA-N): > 100 µM (inactive) | GI50 (SW-620): > 100 µM (inactive) | GI50 (BT-549): > 100 µM (inactive) | GI50 (MOLT-4): > 100 µM (inactive) | GI50 (NCI-H226): > 100 µM (inactive) | GI50 (CCRF-CEM): > 100 µM (inactive) | GI50 (ACHN): > 100 µM (inactive) | GI50 (HL-60): 26.9 µM (inactive) | GI50 (IGROV-1): > 100 µM (inactive) | GI50 (T47D): > 100 µM (inactive) | GI50 (COLO 205): > 100 µM (inactive) | GI50 (DU-145): > 100 µM (inactive) | GI50 (SN12C): > 100 µM (inactive) | GI50 (MDA-MB-231): > 100 µM (inactive) | GI50 (PC-3): > 100 µM (inactive) | GI50 (KM12): > 100 µM (inactive) | GI50 (786-0): > 100 µM (inactive) | GI50 (HCT-15): > 100 µM | GI50 (MDA-MB-435): > 100 µM (inactive) | GI50 (OVCAR-5): > 100 µM (inactive) | GI50 (HCT-116): > 100 µM (inactive) | GI50 (U-251): > 100 µM (inactive) | GI50 (HOP-62): > 100 µM (inactive) | GI50 (OVCAR-4): > 100 µM (inactive) | GI50 (Malme-3M): > 100 µM (inactive) | GI50 (SK-OV-3): > 100 µM (inactive) | GI50 (NCI/ADR-RES): > 100 µM (inactive) | GI50 (EKVX): > 100 µM (inactive) | GI50 (SF-268): > 100 µM (inactive) | GI50 (M14): > 100 µM (inactive) | GI50 (OVCAR-8): > 100 µM (inactive) | GI50 (CAKI-1): > 100 µM (inactive) | GI50 (K562): > 100 µM (inactive) | GI50 (SF-295): > 100 µM (inactive) | GI50 (OVCAR-3): > 100 µM (inactive) | GI50 (A549): > 100 µM (inactive) | GI50 (RXF 393): > 100 µM (inactive) | GI50 (NCI-H23): > 100 µM (inactive) | GI50 (SR): > 100 µM (inactive) | GI50 (MCF7): > 100 µM (inactive) | GI50 (TK-10): > 100 µM (inactive) | GI50 (RPMI-8226): > 100 µM (inactive) | GI50 (LOX IMVI): > 100 µM (inactive) | GI50 (UACC-62): > 100 µM (inactive)

C/C=C1/CN2CCC3(O)c4ccccc4N4C=C(C(=O)OC)C1CC2C43O (stereo not drawn)
GI50 (SK-MEL-28): > 100 µM (inactive) | GI50 (UO-31): > 100 µM (inactive) | GI50 (HOP-92): > 100 µM (inactive) | GI50 (UACC-257): > 100 µM (inactive) | GI50 (SK-MEL-5): > 100 µM (inactive) | GI50 (NCI-H522): > 100 µM (inactive) | GI50 (SNB-75): > 100 µM (inactive) | GI50 (Hs-578T): > 100 µM (inactive) | GI50 (HT-29): > 100 µM (inactive) | GI50 (MDA-N): > 100 µM (inactive) | GI50 (SW-620): > 100 µM (inactive) | GI50 (BT-549): > 100 µM (inactive) | GI50 (MOLT-4): 84.1 µM (inactive) | GI50 (SNB-19): > 100 µM (inactive) | GI50 (CCRF-CEM): > 100 µM (inactive) | GI50 (ACHN): > 100 µM (inactive) | GI50 (HL-60): > 100 µM (inactive) | GI50 (IGROV-1): > 100 µM (inactive) | GI50 (T47D): > 100 µM (inactive) | GI50 (COLO 205): > 100 µM (inactive) | GI50 (DU-145): > 100 µM (inactive) | GI50 (SN12C): > 100 µM (inactive) | GI50 (MDA-MB-231): > 10 µM (inactive) | GI50 (PC-3): > 100 µM (inactive) | GI50 (KM12): > 100 µM (inactive) | GI50 (NCI-H460): > 100 µM (inactive) | GI50 (786-0): > 100 µM (inactive) | GI50 (HCT-15): > 100 µM | GI50 (MDA-MB-435): > 100 µM (inactive) | GI50 (OVCAR-5): > 100 µM (inactive) | GI50 (HCT-116): > 100 µM (inactive) | GI50 (U-251): > 100 µM (inactive) | GI50 (HOP-62): > 100 µM (inactive) | GI50 (OVCAR-4): > 100 µM (inactive) | GI50 (Malme-3M): > 100 µM (inactive) | GI50 (SK-OV-3): > 100 µM (inactive) | GI50 (NCI/ADR-RES): > 100 µM (inactive) | GI50 (EKVX): > 100 µM (inactive) | GI50 (SF-268): > 100 µM (inactive) | GI50 (M14): > 100 µM (inactive) | GI50 (OVCAR-8): > 100 µM (inactive) | GI50 (CAKI-1): > 100 µM (inactive) | GI50 (K562): 81.5 µM (inactive) | GI50 (SF-295): > 100 µM (inactive) | GI50 (OVCAR-3): > 100 µM (inactive) | GI50 (A549): > 100 µM (inactive) | GI50 (NCI-H23): > 100 µM (inactive) | GI50 (SR): > 100 µM (inactive) | GI50 (MCF7): > 100 µM (inactive) | GI50 (TK-10): > 100 µM (inactive) | GI50 (RPMI-8226): > 100 µM (inactive) | GI50 (SF-539): > 100 µM (inactive) | GI50 (HCC 2998): > 100 µM (inactive) | GI50 (LOX IMVI): > 100 µM (inactive) | GI50 (UACC-62): > 100 µM (inactive)
